Earlier results, collected in patent publication US20140248345A1 (Merck Sharp & Dohme Corp., priority 2011, published 2014).

Test system: human Type 2 diabetics
Settings: oral administration

| Compound | HbA1c levels | fasting glucose and postprandial glucose excursion |
| --- | --- | --- |
| N#C[C@@H]1CCCN1C(=O)CNC12CC3CC(CC(O)(C3)C1)C2 [vildagliptin, (S)-1-[(3-hydroxy-1-adamantyl)amino]acetyl-2-cyano-pyrrolidine] | significantly reduced | reduce fasting glucose and postprandial glucose excursion |
| N[C@@H](CC(=O)N1CCn2c(nnc2C(F)(F)F)C1)Cc1cc(F)c(F)cc1F [sitagliptin, (2R)-4-oxo-4-[3-(trifluoromethyl)-5,6-dihydro[1,2,4]triazolo[4,3-a]pyrazin-7(8H)-yl]-1-(2,4,5-trifluorophenyl)butan-2-amine] | significantly reduced | reduce fasting glucose and postprandial glucose excursion |
